Data on 3 compounds can be found in patent US10960088B2, “Macrocycles, cobalt and iron complexes of same, and methods of making and using same” (The Research Foundation for The State University of New York, priority 2013, dated 2021).

“And” between values parts separate entries of the source, which are not always exact repeats. Equal values may be shown once. “Also recorded” adds a separate entry of the source.

A short description of series [1]: Oxidation in air / reduction with dithionite followed by 1H NMR. It counts as physicochemical.
A short description of series [2]: Kinetics of Co(II) oxidation and Co(III) reduction by UV-vis. The class given is physicochemical. The text has this: Materials and methods. Instrumentation. Varian Inova 400 MHz and Inova 500 MHz NMR spectrometers were used to collect ^1H NMR spectra. ^13C NMR spectra were acquired using a Varian Mercury 300 MHz NMR spectrometer operating at 75 MHz. The measurements of magnetic susceptibility and CEST data were acquired on Varian Inova 500 MHz NMR spectrometer. Temperature of samples during ^1H NMR and CEST experiments was controlled with FTS Systems TC-84 Kinetics Air Jet Temperature Controller. A Thermo Scientific Orion 9826BN NMR micro pH electrode connected to a SympHony SB20 pH meter and the Orion 8115BNUWP Ross-ultra semi micro pH electrode connected to a Titrino 702 pH meter were used for pH measurements. ThermoFinnigan LCQ Advantage IonTrap LC/MS equipped with a Surveyor HPLC system was used to collect mass spectral data. Absorbance spectra of [Co(TPT)]^2+ and [Co(TPT)]^3+, together with the kinetic experiments for the reduction of Co(III) with L-ascorbic acid or sodium dithionite, and for the oxidation of Co(II) with oxygen or sodium peroxydisulfate were measured with a Beckman-Coulter DU 800 UV-vis Spectrophotometer equipped with a Peltier Temperature Controller. Kinetic experiments for the oxidation of Co(II) complex were performed after equilibration of the solutions with a mixture containing 5%, 10%, and 20% of oxygen in nitrogen followed by addition of [Co(TPT)]^2+ in the minimal volume of solvent. All experiments for the reduction of […] were performed under an inert atmosphere of argon. […]

Series [3] in a line: Exchange rate constants (omega plot). The protocol: Exchange rate constants were calculated following a previously reported procedure. Measurements of on-resonance (Mz) and off-resonance (Mo) were acquired at different presaturation pulse powers between 350-1000 Hz (8-24 μT) applied for 4 seconds at 37° C. The exchange rate constant (kex) is calculated from the x-intercept from the plot of Mz/(Mo−Mz) against 1/ω1^2 (ω1 in rad/s). The rate constant, kex, is converted into units of s^−1. Samples contained 10 mM Co^II complex, 20 mM HEPES pH 7.4, and 100 mM NaCl.
The exchange rate constants were calculated by using a previously reported procedure. The magnetization of the on-resonance (Mz) and off-resonance (Mo) were acquired at different pre-saturation pulse powers between 350-1090 Hz applied for 4 seconds. To calculate the exchange rate constant (kb), the x-intercept (−1/kb^2) was obtained from the plot of Mz/(Mo−Mz) against 1/ω1^2 (ω1 in rad/s). Samples contained 16 mM [Co(TPT)]Cl2, 200 mM NaCl, and 40 mM MES or HEPES at pH 6.4-7.5. Measurements were carried out at 37° C.

A short description of series [4]: Effective magnetic moment in solution from magnetic susceptibility (NMR). The class given is physicochemical. To be noted: aqueous solution. As for the experimental part:
The effective magnetic moment (μeff) was calculated by using a previously known method. 5 mM Co^II complex and 5% t-butanol by volume was placed in a NMR insert while the outer NMR tube contained 5% by volume t-butanol in D2O. The μeff was calculated at 298 K (T) and monitored over a period of 72 hours using the following approach.
The mass susceptibility of solute (χg) was calculated by obtaining the observed frequency shift of the reference (Δf) in Hz, the spectrometer frequency (f) in Hz, the mass of the substance per cm^3 of solution (m), and the mass susceptibility of solvent D2O (χ0=−0.6466×10^−6 cm^3/g). The last term is neglected due to the minimal contribution to mass susceptibility of solute. The molar susceptibility (χm) is the product of χg multiplied by the molecular weight of the Co^II complex.
The effective magnetic moment was calculated by using a previously known method. In a typical experiment, oxygen-free solution of 8-20 mM [Co(TPT)]^2+ in deuterium oxide, pD 7.0, containing 5% tert-butanol by volume was placed in an NMR tube, while a reference solution of 5% tert-butanol (v/v) in deuterium oxide, pD 7.0, was placed into NMR tube insert. All solutions of [Co(TPT)]^2+ were purged with argon and kept in the absence of air. The effective magnetic moment (μeff) was calculated at 298 K (T) using the following equations 7-8. In these equations the mass susceptibility of solute (χg) was calculated by obtaining the observed frequency shift of the reference (Δf) in Hz, the spectrometer frequency (f) in Hz, the mass of the substance per cm^3 of the solution (m), and the mass susceptibility of deuterium oxide (χ0=−0.6466×10^−6 cm^3/g). The last term in eq. SI is neglected due to the minimal contribution to mass susceptibility of solute. The molar susceptibility (χm) is the product of χg multiplied by the molecular weight of the [Co(TPT)]Cl2 complex. Reported value of the effective magnetic moment was obtained by averaging of three independent experiments. χg=(−3Δf)/(4πfm)+χ0+[χ0(d0−ds)]/m eq. 7 μeff=2.84(χmT)^1/2 eq. 8

A short description of the next series: Cyclic voltammetry. To be noted: versus NHE, in water, 1 M KCl. The class given is physicochemical. As for the experimental part: Cyclic voltammograms were obtained using a Princeton Applied Research Model 263A Potentiostat/Galvanostat and PowerSuite software program. CHI 104 Glassy Carbon Disk working electrode from CH Instruments, Inc. (Austin, Tex.) was used. Cyclic Voltammetry. […] (FIG. 6). The external ferrocyanide standard with Eo (Fe(III)/Fe(II))=303±10 mV vs. NHE contained 1.0 mM K4Fe(CN)6 and 1.00 M KCl under argon. The redox potential of the complex calculated based on a NHE reference using eq. 6: E^o(vs. NHE)=E^o(vs. Ag/AgCl)+167 mV, eq. 6 Determination of Magnetic Moment.

Series [5] is described as follows: Redox potentials of iron complexes (no method given). The class given is physicochemical.

`[Co+2].c1cc(CN2CCN(Cc3cc[nH]n3)CCN(Cc3cc[nH]n3)CC2)n[nH]1` [[Co(TPT)]^2+]: the “stability towards oxidation in air (in words)” value in series [1] is “readily oxidize; also recorded: oxidizes in air to the Co(III) form”. The “second-order rate constant for reduction by dithionite” value in series [2] (200 mM NaCl, 40 mM HEPES, pH 7.0, 37° C.) amounted to 0.24 M⁻¹ s⁻¹. Besides, the “second-order rate constant for oxidation by oxygen” value in series [2] (200 mM NaCl, 40.0 mM HEPES, pH 7.1, 25° C.) is 0.43 M⁻¹ s⁻¹. The “rate constant for oxidation of the Co(II) complex” value is 5e-06 s⁻¹ in series [2] (ambient pressures of oxygen) and 2×10^−6 in series [2] (partial pressures of oxygen of 5%, in 1/s). Besides, the “rate constant for reduction of Co(III) complex” value in series [2] (excess dithionate) stood at 4e-05 s⁻¹. In addition, the “rate constant for oxidation, extrapolated” value in series [2] (hypoxic conditions, 10 mm Hg, 17 μM O2) was 7.3e-06 s⁻¹; in series [2] (oxygen 100 mm Hg (0.17 mM O2), arterial blood) it was 7.3e-05 s⁻¹. Moreover, the “rate constant for proton exchange” value is given as 6,200 s^−1 in series [3] (pH 6.4, 37° C.); 9,200 s^−1 in series [3] (pH 6.9, 37° C.); 12,400 s^−1 in series [3] (pH 7.5, 37° C.). The compound also showed an effective magnetic moment in series [4] of 5.7±0.2 BM. Further, the reduction potential in the series “Cyclic voltammetry” was −107 mV and −107±11 mV.
For `[Fe+2].c1cc(CN2CCN(Cc3cc[nH]n3)CCN(Cc3cc[nH]n3)CC2)n[nH]1` [[Fe(TPT)]^2+], the “stability towards oxidation in air (in words)” value in series [1] is “readily oxidize”.
In the case of `O=C([O-])CN1CCN(CC(=O)[O-])CCN(CC(=O)[O-])CC1.[Fe+3]` [Fe(NOTA)], the redox potential in series [5] came to 195 mV.
